Measured values published in patent US12257247B2 (Monte Rosa Therapeutics AG, priority 2023, dated 2025).
Like-named read-outs stand apart in the source and are kept apart here.

Biological target: T1, VAV1 (Homo sapiens, UniProt P15498+Q96SW2)
T1 construct: A heterozygous VAV1 C-terminal HiBiT knock-in pool was generated at Monte Rosa Therapeutics from a clonal Jurkat cell; endogenous in cells; host or cells: Jurkat clone stably expressing LgBiT, homozygous GSPT1-G575N; heterozygous VAV1-HiBiT knock-in pool
Assay: VAV1 degradation activity, VAV1-HiBiT knock-in Jurkat luminescence assay (Example A, Table 1)
Format: cell-based
Conditions: VAV1-HiBiT knock-in Jurkat cells; for Dmax: Jurkat
Outline: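 Jurkat cells carrying VAV1-HiBiT knock-in, plated in RPMI/10% FBS with Endurazine live-cell substrate and pre-incubated ~16 h at 37° C. Compound dosed from 10 μM stock; luminescence read 6 and 24 h later. Response normalised to plate negative/positive controls, EC50 from 3-parameter logistic fit (hillslope 1).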

[1] = luminescence read at 6 and 24 hours, read-out: VAV1 Dmax %
[2] = luminescence read at 6 and 24 hours, read-out: VAV1 Dmax %, class
[3] = luminescence read at 6 and 24 hours, read-out: VAV1 DC50
[4] = luminescence read at 6 and 24 hours, read-out: VAV1 DC50 (nM), class

SMILES | Dmax [1] | Dmax [2] | DC50 [3] | DC50 [4] | Dmax (luminescence read at 6 and 24 hours after compound addition, read-out: VAV1 Dmax %) | Dmax (luminescence read at 6 and 24 hours after compound addition, read-out: VAV1 Dmax %, class) | DC50 (luminescence read at 6 and 24 hours after compound addition, read-out: VAV1 DC50) | DC50 (luminescence read at 6 and 24 hours after compound addition, read-out: VAV1 DC50 (nM), class)
CN1CCN(CCOc2ccc(-c3cccc(C4CCC(=O)NC4=O)c3Cl)cc2)CC1 (stereo not drawn) [Compound 104] | 81.7% | 60 to 90% | 59.7 nM | ≤ 100 nM | – | – | – | –
O=C1CCC(c2cccc(-c3ccc(N4CCCCC4=O)c(F)c3)c2Cl)C(=O)N1 (stereo not drawn) [Compound 461, 3-(2-chloro-3′-fluoro-4′-(2-oxopiperidin-1-yl)-[1,1′-biphenyl]-3-yl)piperidine-2,6-dione] | 96.2% | > 90% | 10.1 nM | ≤ 100 nM | – | – | – | –
Cn1ccc(CN2CCc3cc(-c4cccc(C5CCC(=O)NC5=O)c4Cl)ccc32)n1 (stereo not drawn) [Compound 489, 3-(2-chloro-3-(1-((1-methyl-1H-pyrazol-3-yl)methyl)indolin-5-yl)phenyl)piperidine-2,6-dione] | – | – | – | – | 97.8% | > 90% | 2.84 nM | ≤ 100 nM
COc1ccc(-c2ccc(F)c(C3CCC(=O)NC3=O)c2F)cc1C (stereo not drawn) [Compound 148] | 21.4% | < 60% | ≥ 10000 nM | > 1000 nM | – | – | – | –

Second part, the compound after the results:

Dmax [1] | Dmax [2] | DC50 [3] | DC50 [4] | Dmax (luminescence read at 6 and 24 hours after compound addition, read-out: VAV1 Dmax %) | Dmax (luminescence read at 6 and 24 hours after compound addition, read-out: VAV1 Dmax %, class) | DC50 (luminescence read at 6 and 24 hours after compound addition, read-out: VAV1 DC50) | DC50 (luminescence read at 6 and 24 hours after compound addition, read-out: VAV1 DC50 (nM), class) | SMILES
97.5% | > 90% | 3.61 nM | ≤ 100 nM | – | – | – | – | Cc1cccc(=O)n1-c1ccc(-c2cccc(C3CCC(=O)NC3=O)c2Cl)cc1 (stereo not drawn) [Compound 214, 3-(2-chloro-4′-(6-methyl-2-oxopyridin-1(2H)-yl)-[1,1′-biphenyl]-3-yl)piperidine-2,6-dione]
83.8% | 60 to 90% | 52.2 nM | ≤ 100 nM | – | – | – | – | O=C1CCC(c2cccc(-c3ccc(Cn4ccnc4)cc3)c2Cl)C(=O)N1 (stereo not drawn) [Compound 140, 3-(4′-((1H-imidazol-1-yl)methyl)-2-chloro-[1,1′-biphenyl]-3-yl)piperidine-2,6-dione]
51.5% | < 60% | 7800 nM | > 1000 nM | – | – | – | – | O=C1CCC(c2cccc(-c3ccc(C(=O)Nc4ccno4)cc3)c2Cl)C(=O)N1 (stereo not drawn) [Compound 224, 2′-chloro-3′-(2,6-dioxopiperidin-3-yl)-N-(isoxazol-5-yl)-[1,1′-biphenyl]-4-carboxamide]
92.7% | > 90% | 21.9 nM | ≤ 100 nM | – | – | – | – | CC1(C)CN(c2ccc(-c3cccc(C4CCC(=O)NC4=O)c3Cl)cc2)C(=O)CO1 (stereo not drawn) [Compound 311]
79.4% | 60 to 90% | 266 nM | 100 to 1000 nM | – | – | – | – | O=C1CCC(c2cccc(-c3ccc(N4CCCCC4C(F)F)cc3)c2Cl)C(=O)N1 (stereo not drawn) [Compound 469, 3-(2-chloro-4′-(2-(difluoromethyl)piperidin-1-yl)-[1,1′-biphenyl]-3-yl)piperidine-2,6-dione]
